Tested on: squid giant synapse
Assay: Electron microscopy of presynaptic terminal (synaptic vesicles at active zones)
Type: cell-based, squid (Loligo paelli)
Conditions: treated squid following h-tau42 injection
Description: Immediately following the electrophysiological study the ganglia were removed from the recording chamber, fixed by immersion in glutaraldehyde, postfixed in osmium tetroxide, stained in block with uranium acetate, dehydrated and embedded in resin (Embed 812, EM Sciences). Ultrathin sections were collected on Pioloform (Ted Pella, Redding, Calif.) and carbon-coated single sloth grids, and contrasted with uranyl acetate and lead citrate. Morphometry and quantitative analysis of the synaptic vesicles were performed with the in house program developed with LabVIEW (National Instruments, Ostin Tex.). […] Vesicle density at the synaptic active zones was determined as the number of vesicles per μm^2, on an average area of 0.8 μm^2 per active zone. CCV density was determined within the limits of the presynaptic terminal on an average terminal area of 3.3 μm^2.
At the end of the electrophysiological recordings the stellate ganglion was immediately removed from the recording chamber and fixed by immersion in glutaraldehyde. […] Morphometry and quantitative analysis of the synaptic vesicles were performed with the image J software (NIH, EUA). […] Synaptic vesicle density and the number of CCV at the synaptic active zones were determined as the number of vesicles per μm2. […]

O=C(O)/C=C\C(=O)O.OC1CN(CCCOCCc2ccc3sccc3c2)C1 [T817MA]
reduction in number of docked vesicles following h-tau42 injection: not seen

Source: patent US20150202157A1, “COMPOSITIONS AND METHODS FOR ENHANCING NEURONAL PHOSPHORYLATION HOMEOSTASIS, AND MODULATING DYSFUNCTIONAL EXOCYTOSIS AND NEUROTRANSMITTER RELEASE” (Revalesio Corporation, priority 2014, published 2015)
